Data on nine compounds can be found in PMC10087458 (Chemical Biology & Drug Design, 2022).

A word on the solubility: it is the dissolved amount per volume that the medium holds.

For series [1], the system named is Mycobacterium aurum (ATCC 23366). Kind of series: HT-SPOTi anti-mycobacterial assay, M. aurum. Format: cell-based. The settings on record: Mycolicibacterium aurum.
In series [2] the test system is adenosine receptors in RAW264.7 cells. Kind of series: cAMP accumulation in RAW264.7 macrophages (cAMP ELISA). Format: cell-based, murine. The following applies: for increase in cAMP compared with forskolin: 1 μM, 10 min incubation, PDE inhibitor pre-treatment, positive control forskolin 1 μM. On the technique in general: Changes in cAMP serve as a functional read-out for many G protein-coupled receptors.

Series [3] has as its system murine macrophages RAW 264.7. Description: Resazurin cytotoxicity assay on RAW 264.7 macrophages. Format: cell-based. The following applies: Mus musculus.
In series [4] the test system is Mycobacterium bovis BCG (ATCC35734). Kind of series: microbe, parasite or virus in culture. Format: cell-based. The following applies: Mycobacterium tuberculosis variant bovis BCG, read-out: MIC90 M. bovis BCG, HT-SPOTi; lowest concentration inhibiting 90% of the bacteria.
Series [5] can be described thus: Equilibrium solubility, modified shake-flask method with HPLC quantification. Format: physicochemical. The settings on record: shake-flask 24 h, HPLC 230 nm. The protocol:
The equilibrium solubility of ADN‐PEG‐conjugates was determined using a modified version of the shake‐flask method (Plöger et al., [2018]). An excess of the ADN‐PEG‐conjugate was added to either phosphate buffer solution (PBS buffer) or deuterium‐depleted water (DDW) at a pH value of 6.8. The resulting suspension was shaken at 37°C until a (thermodynamic) equilibrium was reached between saturated solution and undissolved solid. Solubility quantification of the samples was achieved using high‐pressure liquid chromatography (HPLC) analysis.
An excess amount of the PEG-ADN conjugates was added into a 20 mL glass vial containing either phosphate buffer solution or DDW. The samples were placed into a shaking water bath at 150 rpm at 37ᵒC for 24h. The supernatant was withdrawn from the suspension using a micro centaur MSB010.CX2.5 centrifuge (MSE Ltd., London, UK) at 1.3 × 10,000 rpm for 1 min.

For series [6], the system named is Mycobacterium bovis BCG (ATCC35734). The settings on record: ref Ferguson et al., [2020]; cited from earlier work.
For series [7], the system named is Mycobacterium aurum (ATCC 23366). Also on record: method as in Ferguson et al., [2020]. The settings on record: ref Ferguson et al., [2020]; cited from earlier work.
For series [8], the system named is Mycobacterium tuberculosis in a persistent state. Also on record: method as in Barrow et al., [2003]. The following applies: ref Barrow et al., [2003]; cited from earlier work.
[9] abbreviates: ATCC23366, HT-SPOTi, lowest concentration inhibiting 90% of the bacteria, read-out: MIC90 M. aurum.
Setting [10] is: RAW264.7, 50% inhibition of cell proliferation, resazurin micro dilution method, RAW 264.7 murine macrophages, read-out: GIC50 RAW 264.7.
Setting [11] is: aqueous buffer, thermodynamic from solid, phosphate buffer solution pH 6.8, 37°C, read-out: Solubility (mean ± SD) PBS.
The mark [12] stands for this setting: pH 7, thermodynamic from solid, deuterium-depleted water (DDW), 37°C, read-out: Solubility (mean ± SD) DDW.

Structures are written as SMILES. Values after ≈ are worked out from the molar mass of the structure shown. “Also recorded” adds a separate entry of the source. Like-named read-outs stand apart in the source and are kept apart here.

In the case of `CC1(C)O[C@@H]2[C@H](O1)[C@@H](CO)O[C@H]2n1cnc2c(N)nc(C#CCOCCOCCOCCOCCOS(C)(=O)=O)nc21` [11b], the MIC90 in series [1] (setting [9]) and in series [4] was 500 µg/mL (≈ 812 µM) each time. Further, the “cAMP accumulation in RAW264.7 cells (in words)” value in series [2] is recorded as “significant increase; also recorded: considerable increase”. The “increase in cAMP compared with forskolin” value in series [2] is listed as 46%. Also, the IC50 in series [3] (setting [10]) was 62.5 µg/mL (≈ 102 µM). The solubility at 24 h in series [5] (setting [11]) was 1180 ± 190 µg/mL (≈ 1920 µM); in series [5] (setting [12]), 1160 ± 640 µg/mL (≈ 1880 µM).
With `Nc1nc(I)nc2c1ncn2[C@@H]1O[C@H](CO)[C@@H](O)[C@H]1O` [compound 9, 2‐iodoadenosine, reference compound], the MIC90 in series [1] (ATCC23366, read-out: MIC90 M. aurum) turned out to be 125 µg/mL (≈ 318 µM); in series [4] it was 15.6 µg/mL (≈ 39.7 µM). Further, in series [6], the “bactericidal activity against M. bovis (in words)” value is listed as “exhibited bactericidal activity”. In series [3] (RAW264.7, read-out: GIC50 RAW 264.7), the IC50 worked out at 250 µg/mL (≈ 636 µM). In addition, the “bactericidal activity against M. aurum (in words)” value in series [7] was “not”.
Consider `CC1(C)O[C@@H]2[C@H](O1)[C@@H](CO)O[C@H]2n1cnc2c(N)nc(C#CCOCCOCCOCCOCCOCCOS(C)(=O)=O)nc21` [11c], for which the MIC90 in series [1] (setting [9]) worked out at 125 µg/mL (≈ 189 µM); in series [4], 250 µg/mL (≈ 379 µM). Moreover, the IC50 in series [3] (setting [10]) was 62.5 µg/mL (≈ 94.7 µM).
As for `Nc1ncnc2c1ncn2[C@@H]1O[C@H](CO)[C@@H](O)[C@H]1O` [Adenosine, adenosine, reference compound], the “increase in cAMP compared with forskolin” value in series [2] was 48%.
Regarding `CC1(C)O[C@@H]2[C@H](O1)[C@@H](COS(N)(=O)=O)O[C@H]2n1cnc2c(N)nc(C#CCOCCOCCOCCOCCOCCOS(C)(=O)=O)nc21` [12c], the figures for the MIC90 in series [1] (setting [9]) and in series [4] were 62.5 µg/mL (≈ 84.6 µM) and 500 µg/mL (≈ 677 µM), respectively. Besides, the IC50 in series [3] (setting [10]) was determined as 31.2 µg/mL (≈ 42.2 µM).
For `CS(=O)(=O)OCCOCCOCCOCCOCCOCC#Cc1nc(N)c2ncn([C@@H]3O[C@H](CO)[C@@H](O)[C@H]3O)c2n1` [10c], in that order: 250 µg/mL (≈ 403 µM), 250 µg/mL (≈ 403 µM) and 250 µg/mL (≈ 403 µM).
`Cc1nc(N)c2ncn([C@@H]3O[C@H](CO)[C@@H](O)[C@H]3O)c2n1` [2‐methyl adenosine]: the “growth of Mycobacterium tuberculosis in a persistent state (in words)” value in series [8] is given as “inhibited the growth”.
For `NNC(=O)c1ccncc1` [Isoniazid, isoniazid, reference compound], the MIC90 in series [1] (setting [9]) amounted to 7.81 µg/mL (≈ 56.9 µM); in series [4], 0.49 µg/mL (≈ 3.57 µM). Besides, the IC50 in series [3] (setting [10]) is 500 µg/mL (≈ 3650 µM).
`CS(=O)(=O)OCCOCCOCCOCCOCC#Cc1nc(N)c2ncn([C@@H]3O[C@H](CO)[C@@H](O)[C@H]3O)c2n1` [10b]: the MIC90 in series [1] (setting [9]) and in series [4] was 250 µg/mL (≈ 434 µM) in each case. The “cAMP accumulation in RAW264.7 cells (in words)” value in series [2] was “significant increase; also recorded: considerable increase”. Further, the “increase in cAMP compared with forskolin” value in series [2] amounted to 42%. Also, the IC50 in series [3] (setting [10]) worked out at 250 µg/mL (≈ 434 µM). The solubility at 24 h in series [5] (setting [11]) amounted to 1220 ± 260 µg/mL (≈ 2120 µM); in series [5] (setting [12]), 1330 ± 320 µg/mL (≈ 2310 µM).
